The values that follow come from patent US20210093714A1, “Combination and method for inhibiting the cancer cells” (NATIONAL TAIWAN UNIVERSITY, priority 2013, published 2021).

Experiment [1] deals with EGFR. Nature of the experiment: Western blot of CCN2-induced EGFR degradation. Type of experiment: cell-based, human. As to conditions: CL1-5 with CCN2. How it is done: (§1) Proteins ([…]) were separated by SDS-PAGE and transferred to a polyvinylidene difluoride membrane (Immobilon-P membrane; Millipore) by electrotransfer. The blot was blocked in a solution of 5% skim milk and 0.1% Tween 20 in PBS. Thereafter, membrane-bound proteins were probed with the following primary antibodies: CCN2, DAPK, phosphorylated ERK, ERK-1, phosphorylated Akt, Akt, TrkA, phosphorylated-Src, Src, b-actin, a-tubulin (Santa Cruz Biotechnology), p-EGFR, and EGFR (Cell Signaling Technology, Danvers, MA, USA). The membrane was washed and then incubated with HRP-conjugated secondary antibodies for 30 min. Enhanced chemiluminescence reagents (Amersham Pharmacia Biotech, Piscataway, N.J., USA) were employed to depict the protein bands on membranes. The light was captured on Kodak X-Omat Blue autoradiography film (PerkinElmer Life Sciences, Boston, Mass., USA).
This embodiment focuses on whether CCN2 interacts with EGFR. At first, the effect of MG132 and CCN2 on the degradation of EGFR in the lung adenocarcinoma cell line, CL1-5, and the effect of cycloheximide and CCN2 on the degradation of EGFR in the lung adenocarcinoma cell line, CL1-5,were observed by western blot analysis, the results shown in FIGS. 4A and 4B. […] On the other hand, cycloheximide can gradually promote CCN2-induced EGFR degradation and attenuated the protein signal intensity(Fold) of EGFR (attenuated from 0.74 to 0.39)(as shown in FIG. 4B) with increasing time (0 hours, 12 hours, 24 hours, 48 hours). Thus, CCN2 can destabilize EGFR and enhance the degradation of EGFR.

The subject of experiment [2] is ERK. The experiment is described as follows: Western blot of ERK phosphorylation. The experiment is classed as cell-based, human. As to conditions: CL1-5; PD98059 0, 10, 20 μM; FIG. 6E. How it is done: as §1
This embodiment focuses on the effect of CCN2 on the EGFR-induced signaling pathways. At first, the effect of exogenous CCN2(rCCN2) on the MAPK/AKT signaling pathways in the lung adenocarcinoma cell lines, CL1-5, A549 and CL1-0/siCCN2 was observed by western blot analysis, the results shown in FIG. 3A.

Experiment [3] relates to DAPK. The experiment is described as follows: Western blot of DAPK expression. Type of experiment: cell-based, human. As to conditions: CL1-5; PD98059 0, 10, 20 μM; FIG. 6E. How it is done: as §1
This embodiment focuses on the downstream signaling in CCN2-induced anoikis. At first, the effect of DAPK which can up-regulate CCN2 played on CCN2 induced anoikis and metastasis inhibition of lung adenocarcinoma cell lineswas observed by RT-PCR, dual luciferase reporter assay and western blot analysis, the results shown in FIGS. 6A to 6C. […] In addition, in the lung adenocarcinoma cell line, CL1-0/siCCN2, DAPK expression is suppressed, and DAPK expression also be suppressed with increasing dose (0 μg, 1μg, 3μg), (as shown on the top right in the FIG. 6C). Therefore, CCN2 induced DAPK expression in time- and dose-dependent manners.

In experiment [4] the test system is CCN2 transfected lung adenocarcinoma cell line, CL1-5. The experiment is described as follows: MTT Assay, chemotherapy drugs on CCN2 transfected CL1-5. Type of experiment: cell-based, human. As to conditions: suspended CCN2 transfected CL1-5; increasing dose 0 to 10 μM; 24 hrs; FIG. 8A. How it is done: First, the effect of CCN2 on the suspended lung adenocarcinoma cell line, CL1-5, treated with chemotherapy was observed by MTT Assay, the results shown in FIG. 8A (Cells were treated for 24 hrs, *P<0.05, **P<0.01). […] In this embodiment, paclitaxel treatment with a concentration between 1 μM and 10 μM is perferred, and 10 μM is most preferable; doxorubicin treatment with a concentration between 0.5 μM and 10 μM is perferred, and 5 μM is most preferable.

For experiment [5], the system named is EGFR. Nature of the experiment: Immunoprecipitation and in vitro binding assay of CCN2 and EGFR. Also on record: species or system human. As to conditions: A549; rEGF 20 ng/mL for 24 h; rCCN2 100 ng/mL; FIG. 2C. How it is done:
CCN2 transfectants were seeded overnight and incubated in serum-free media for 24 h. For immunoprecipitations, cells were lysed in an RIPA buffer (150 mM NaCl, 50 mM Tris-base, 5 mM EDTA, 1% NP-40, and 0.25% deoxycholate; pH 7.4). Protein concentrations were determined using the BCA protein assay kit (Pierce, Rockford, Ill., USA). Lysate was incubated for 2 h at 4[…] with gentle rotation with rabbit polyclonal antibodies for human EGFR, CCN2, or Src immobilized onto protein A—sepharose beads (Santa Cruz Biotechnology, Santa Cruz, Calif., USA). Beads were washed twice with an IP buffer (137 mM NaCl, 2.7 mM KCl, 1 mM MgCl2, 1 mM CaCl2, 1% NP-40, 10% glycerol, 1 mg/ml bovine serum albumin, and 20 mM Tris; pH 8.0), boiled in a sodium dodecyl sulfate-polyacrylamide gel electrophoresis (SDS-PAGE) sample buffer, and centrifuged (12000×g, 4° C. for 15 min).
The recombinant proteins rCCN2 (BioVendor Com. Heidelberg, Germany), rEGFR, and rEGF (R&D Techne Corporation) ([…]) were added in binding buffer (50 mM sodium phosphate, pH 7.5, 500 mM NaCl, and I% Nonidet P-40) and incubated with gentle rotation at 4° C. for 2 h. Thereafter, crosslinks were reversed by boiling in an SDS-PAGE sample buffer (containing 0.1M dithiothreitol (DTT)) before loading on SDS-PAGE gels for immunoblotting analysis. […]

The target in experiment [6] is T1, EGFR (Homo sapiens, UniProt P00533).
T1 construct: endogenous in cells; host or cells: CL1-5 and A549 human lung adenocarcinoma cell lines
Nature of the experiment: FACS and western blot, CCN2 domain responsible for EGFR binding. Type of experiment: cell-based. As to conditions: suspended A549; rCT 100 ng/mL; FIG. 2G. How it is done:
After washing, cells were stained with an FITC-labelled goat anti-rabbit secondary antibody (Santa Cruz Biotechnology) for 30 min in the dark. Analysis was then conducted with an FACS Calibur cytometer (Collaborative Biomedical, BD Biosciences).
A general note: A western blot detects proteins with antibodies after separation by electrophoresis.

Residues, ends and D or L forms follow the SMILES beside them. *: point of attachment. Cbz = O=C(OCc1ccccc1)*

For `CC(C)C[C@@H](C=O)NC(=O)[C@H](CC(C)C)NC(=O)[C@H](CC(C)C)NC(=O)OCc1ccccc1` [MG132] (Cbz-Leu-Leu-Leu-aldehyde), the “protein signal intensity(Fold) of EGFR” value in experiment [1] (MG132, end of time course (24 hours), FIG. 4A) came out at 1.41 Fold; in experiment [1] (MG132, start of time course (0 hours), FIG. 4A), 0.04 Fold. Take `COc1cccc(-c2cc(=O)c3ccccc3o2)c1N` [PD98059, reference compound]: the p-ERK entry in experiment [2] is “gradually inhibit p-ERK”. Besides, the DAPK expression entry in experiment [3] was “gradually increase the DAPK expression”. `C[C@@H]1C[C@@H]([C@H](O)CC2CC(=O)NC(=O)C2)C(=O)[C@@H](C)C1` [cycloheximide]: the “protein signal intensity(Fold) of EGFR” value amounted to 0.39 Fold in experiment [1] (cycloheximide, end of time course (48 hours), FIG. 4B) and 0.74 Fold in experiment [1] (cycloheximide, start of time course (0 hours), FIG. 4B). Regarding `COc1cccc2c1C(=O)c1c(O)c3c(c(O)c1C2=O)C[C@@](O)(C(=O)CO)C[C@@H]3O[C@H]1C[C@H](N)[C@H](O)[C@H](C)O1` [doxorubicin], in experiment [4], the cell apoptosis result was “increase cell apoptosis more significantly”. Same read-out and setting: the same measure for `CC(=O)O[C@H]1C(=O)[C@@]2(C)[C@H]([C@H](OC(=O)c3ccccc3)[C@]3(O)C[C@H](OC(=O)[C@H](O)[C@@H](NC(=O)c4ccccc4)c4ccccc4)C(C)=C1C3(C)C)[C@]1(OC(C)=O)CO[C@@H]1C[C@@H]2O` [paclitaxel]: “increase cell apoptosis more significantly”.

As for “EGF: EGFR ligand, recombinant protein (R&D Techne Corporation) [reference compound]”, the “effect on physical association between CCN2 and EGFR” value in experiment [5] was “do not block the physically association between CCN2 and EGFR”.

B1: rCT: carboxyl-terminal cystine knot (CT) domain of CCN2, CCN2 functional fragment (protein)
chain: KGKKCIRTPKISKPIKFELSGCTSMKTYRAKFCGVCTDGRCCTPHRTTTLPVEFKCPDGEVMKKNMMFIKTCACHYNCPGDNDIFESLYYRKMYGDMA
For B1, the “association of CT-domain of CCN2 with EGFR” value in experiment [6] was “has association relationship with EGFR”.
